Consider 12 compounds from ChEMBL document CHEMBL3991601, “The target landscape of clinical kinase drugs” (Science, 2017).

Active and inactive are the calls of the source. For most assays here, no stated cut-off is given here; in the data, actives have a measured Kd and inactives only a lower limit. A value given as a limit tells only on which side of the number the result lay.

Assay [1] concerns the target Calcium/calmodulin-dependent protein kinase type II subunit delta (Homo sapiens, UniProt Q13557).
For assay [2], the target named is Serine/threonine-protein kinase MRCK alpha (Homo sapiens, UniProt Q5VT25).
The target in assay [3] is DnaJ homolog subfamily A member 1 (Homo sapiens, UniProt P31689).
Assay [4] has as its target Serine/threonine-protein kinase N1 (Homo sapiens, UniProt Q16512).
The target of assay [5] is Serine/threonine-protein kinase 10 (Homo sapiens, UniProt O94804).
Assay [6] deals with T1, TGF-beta receptor type-1 (Homo sapiens, UniProt P36897).
T1 sequence (P36897 whole entry): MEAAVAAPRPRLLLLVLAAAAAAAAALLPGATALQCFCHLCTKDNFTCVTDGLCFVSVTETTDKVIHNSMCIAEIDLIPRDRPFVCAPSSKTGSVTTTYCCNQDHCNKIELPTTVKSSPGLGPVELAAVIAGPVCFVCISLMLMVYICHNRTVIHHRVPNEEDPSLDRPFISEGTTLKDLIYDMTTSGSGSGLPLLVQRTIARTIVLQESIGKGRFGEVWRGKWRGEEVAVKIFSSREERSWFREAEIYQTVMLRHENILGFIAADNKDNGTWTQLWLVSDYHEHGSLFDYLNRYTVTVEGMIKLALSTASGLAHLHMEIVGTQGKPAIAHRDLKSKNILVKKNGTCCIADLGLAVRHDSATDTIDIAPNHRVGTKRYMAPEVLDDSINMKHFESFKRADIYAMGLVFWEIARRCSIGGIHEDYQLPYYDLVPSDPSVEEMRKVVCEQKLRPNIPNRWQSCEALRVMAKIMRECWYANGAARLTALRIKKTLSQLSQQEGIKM

Assay [7] has as its target Wee1-like protein kinase (Homo sapiens, UniProt P30291).
The target in assay [8] is T2, General transcription and DNA repair factor IIH helicase subunit XPD (Homo sapiens, UniProt P18074).
T2 sequence (P18074 whole entry): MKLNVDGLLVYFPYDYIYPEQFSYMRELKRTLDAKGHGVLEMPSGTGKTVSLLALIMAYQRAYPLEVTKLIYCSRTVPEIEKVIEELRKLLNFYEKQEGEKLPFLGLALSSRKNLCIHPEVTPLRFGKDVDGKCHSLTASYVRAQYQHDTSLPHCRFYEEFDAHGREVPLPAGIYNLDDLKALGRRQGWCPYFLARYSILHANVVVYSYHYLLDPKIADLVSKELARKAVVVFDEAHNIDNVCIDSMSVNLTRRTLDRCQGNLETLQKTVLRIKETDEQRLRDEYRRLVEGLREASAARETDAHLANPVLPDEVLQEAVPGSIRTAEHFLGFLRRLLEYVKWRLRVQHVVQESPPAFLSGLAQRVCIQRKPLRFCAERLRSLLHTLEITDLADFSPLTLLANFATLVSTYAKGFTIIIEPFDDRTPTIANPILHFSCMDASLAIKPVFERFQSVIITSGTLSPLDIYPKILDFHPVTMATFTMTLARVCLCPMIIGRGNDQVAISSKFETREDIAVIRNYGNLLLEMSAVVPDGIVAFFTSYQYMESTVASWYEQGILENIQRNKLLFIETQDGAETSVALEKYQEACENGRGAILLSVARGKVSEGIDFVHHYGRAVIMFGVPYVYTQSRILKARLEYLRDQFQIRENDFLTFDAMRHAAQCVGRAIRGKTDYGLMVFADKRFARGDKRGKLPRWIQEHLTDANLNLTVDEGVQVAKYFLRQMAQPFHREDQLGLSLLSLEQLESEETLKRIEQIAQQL
The settings on record: read-out: Kd apparent; k-562, colo 205, sk-n-be(2) and mv-4-11.

The target of assay [9] is T3, Structural maintenance of chromosomes protein 1A (Homo sapiens, UniProt Q14683).
T3 sequence (Q14683 whole entry): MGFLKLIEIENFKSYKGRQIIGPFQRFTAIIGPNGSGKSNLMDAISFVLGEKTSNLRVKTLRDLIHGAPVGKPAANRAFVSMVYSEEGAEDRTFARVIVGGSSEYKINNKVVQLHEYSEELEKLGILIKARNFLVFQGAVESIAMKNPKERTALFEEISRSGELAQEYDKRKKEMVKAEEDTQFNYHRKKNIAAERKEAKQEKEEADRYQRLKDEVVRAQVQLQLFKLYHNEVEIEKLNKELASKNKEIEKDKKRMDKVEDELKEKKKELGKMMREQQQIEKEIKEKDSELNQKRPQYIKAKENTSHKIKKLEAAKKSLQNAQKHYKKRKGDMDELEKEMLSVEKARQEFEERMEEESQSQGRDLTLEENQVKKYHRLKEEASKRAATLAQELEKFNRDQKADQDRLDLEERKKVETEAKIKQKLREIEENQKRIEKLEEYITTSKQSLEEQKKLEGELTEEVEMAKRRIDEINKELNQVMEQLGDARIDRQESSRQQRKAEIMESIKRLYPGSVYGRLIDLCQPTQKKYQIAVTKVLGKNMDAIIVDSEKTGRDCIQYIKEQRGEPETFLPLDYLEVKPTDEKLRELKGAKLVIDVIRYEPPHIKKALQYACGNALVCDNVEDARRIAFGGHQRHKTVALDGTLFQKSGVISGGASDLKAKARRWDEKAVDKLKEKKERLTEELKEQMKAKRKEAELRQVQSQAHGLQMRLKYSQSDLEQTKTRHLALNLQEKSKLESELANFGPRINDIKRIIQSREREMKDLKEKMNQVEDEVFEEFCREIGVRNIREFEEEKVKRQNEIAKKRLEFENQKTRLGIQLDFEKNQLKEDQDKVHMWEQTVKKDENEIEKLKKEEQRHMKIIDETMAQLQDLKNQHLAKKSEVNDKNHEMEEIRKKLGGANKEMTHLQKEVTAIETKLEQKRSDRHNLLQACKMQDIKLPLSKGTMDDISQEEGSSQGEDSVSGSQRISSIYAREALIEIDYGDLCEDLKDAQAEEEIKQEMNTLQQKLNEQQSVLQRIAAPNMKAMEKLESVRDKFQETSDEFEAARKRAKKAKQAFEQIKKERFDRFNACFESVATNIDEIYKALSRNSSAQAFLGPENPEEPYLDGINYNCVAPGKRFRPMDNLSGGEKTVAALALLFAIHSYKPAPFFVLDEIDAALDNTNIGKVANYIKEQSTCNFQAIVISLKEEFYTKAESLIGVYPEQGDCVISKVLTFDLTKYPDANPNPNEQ

Chain of Serine/threonine-protein kinase N1 (Q16512 whole entry): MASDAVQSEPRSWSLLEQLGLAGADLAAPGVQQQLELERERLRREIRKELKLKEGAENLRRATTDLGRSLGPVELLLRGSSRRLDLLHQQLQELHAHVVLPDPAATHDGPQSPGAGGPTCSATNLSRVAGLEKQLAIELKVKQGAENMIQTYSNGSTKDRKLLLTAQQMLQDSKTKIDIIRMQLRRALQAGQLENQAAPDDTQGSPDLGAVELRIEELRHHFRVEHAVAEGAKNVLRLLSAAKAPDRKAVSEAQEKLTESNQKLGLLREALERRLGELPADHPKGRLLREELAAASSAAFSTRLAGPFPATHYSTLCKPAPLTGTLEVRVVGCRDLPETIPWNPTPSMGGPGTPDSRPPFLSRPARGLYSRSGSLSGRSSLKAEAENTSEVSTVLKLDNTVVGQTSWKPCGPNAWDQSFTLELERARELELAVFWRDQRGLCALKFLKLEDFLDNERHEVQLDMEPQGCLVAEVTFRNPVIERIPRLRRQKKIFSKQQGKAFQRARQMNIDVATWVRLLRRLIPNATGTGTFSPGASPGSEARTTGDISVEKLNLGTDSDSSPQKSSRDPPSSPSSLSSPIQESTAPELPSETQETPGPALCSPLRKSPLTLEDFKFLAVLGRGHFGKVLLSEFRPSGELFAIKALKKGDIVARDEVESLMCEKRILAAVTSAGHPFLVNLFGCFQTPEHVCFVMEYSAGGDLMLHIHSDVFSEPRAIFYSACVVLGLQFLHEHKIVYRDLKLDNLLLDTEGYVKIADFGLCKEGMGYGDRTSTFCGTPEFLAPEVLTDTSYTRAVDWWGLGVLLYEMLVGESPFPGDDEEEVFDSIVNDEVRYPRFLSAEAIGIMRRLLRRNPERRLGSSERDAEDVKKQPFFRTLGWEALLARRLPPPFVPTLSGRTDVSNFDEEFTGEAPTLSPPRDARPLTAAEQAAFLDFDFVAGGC
Chain of Serine/threonine-protein kinase MRCK alpha (Q5VT25 whole entry): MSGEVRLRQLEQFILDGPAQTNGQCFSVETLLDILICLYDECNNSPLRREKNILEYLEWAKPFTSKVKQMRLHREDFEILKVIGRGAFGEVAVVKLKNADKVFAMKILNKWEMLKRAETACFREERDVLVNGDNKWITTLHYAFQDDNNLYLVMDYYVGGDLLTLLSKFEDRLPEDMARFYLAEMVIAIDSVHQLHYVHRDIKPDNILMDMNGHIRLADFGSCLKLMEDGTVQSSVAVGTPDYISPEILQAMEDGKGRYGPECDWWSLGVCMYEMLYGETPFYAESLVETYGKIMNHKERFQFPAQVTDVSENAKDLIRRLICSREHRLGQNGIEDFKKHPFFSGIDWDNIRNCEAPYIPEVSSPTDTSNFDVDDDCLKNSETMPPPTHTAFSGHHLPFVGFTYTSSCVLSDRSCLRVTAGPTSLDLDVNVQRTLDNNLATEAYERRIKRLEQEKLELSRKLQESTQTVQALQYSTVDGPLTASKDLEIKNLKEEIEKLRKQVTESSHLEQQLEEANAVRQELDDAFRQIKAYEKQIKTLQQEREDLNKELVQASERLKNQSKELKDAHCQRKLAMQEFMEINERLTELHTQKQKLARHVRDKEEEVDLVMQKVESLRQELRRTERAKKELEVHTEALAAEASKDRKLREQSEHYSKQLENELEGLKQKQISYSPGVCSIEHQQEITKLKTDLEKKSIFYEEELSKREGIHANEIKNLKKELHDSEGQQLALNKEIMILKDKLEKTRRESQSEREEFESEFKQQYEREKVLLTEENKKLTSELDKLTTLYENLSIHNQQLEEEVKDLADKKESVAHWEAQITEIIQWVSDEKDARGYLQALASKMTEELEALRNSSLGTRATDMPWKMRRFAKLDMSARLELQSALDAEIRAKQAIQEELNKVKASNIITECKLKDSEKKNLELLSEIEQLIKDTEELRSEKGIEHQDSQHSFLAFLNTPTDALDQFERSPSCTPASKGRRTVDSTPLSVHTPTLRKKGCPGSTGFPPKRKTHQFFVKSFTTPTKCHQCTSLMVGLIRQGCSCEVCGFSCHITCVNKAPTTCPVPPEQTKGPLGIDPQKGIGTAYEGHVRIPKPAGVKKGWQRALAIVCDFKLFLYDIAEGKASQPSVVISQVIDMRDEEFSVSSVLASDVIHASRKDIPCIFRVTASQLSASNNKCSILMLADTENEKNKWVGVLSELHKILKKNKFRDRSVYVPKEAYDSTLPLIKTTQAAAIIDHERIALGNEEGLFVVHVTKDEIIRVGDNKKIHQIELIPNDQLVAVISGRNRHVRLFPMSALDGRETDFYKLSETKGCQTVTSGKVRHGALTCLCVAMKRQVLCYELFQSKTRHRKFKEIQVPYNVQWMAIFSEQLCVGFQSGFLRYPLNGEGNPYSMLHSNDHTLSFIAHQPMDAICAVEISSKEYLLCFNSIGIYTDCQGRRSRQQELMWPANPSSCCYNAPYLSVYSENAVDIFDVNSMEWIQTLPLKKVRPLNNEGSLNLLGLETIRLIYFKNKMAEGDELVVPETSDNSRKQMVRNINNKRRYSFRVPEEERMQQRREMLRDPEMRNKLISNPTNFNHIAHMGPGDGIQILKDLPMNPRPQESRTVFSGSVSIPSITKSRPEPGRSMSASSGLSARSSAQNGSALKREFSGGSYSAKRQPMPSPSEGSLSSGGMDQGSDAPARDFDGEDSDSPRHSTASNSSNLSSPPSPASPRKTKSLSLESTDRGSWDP
Chain of Calcium/calmodulin-dependent protein kinase type II subunit delta (Q13557 whole entry): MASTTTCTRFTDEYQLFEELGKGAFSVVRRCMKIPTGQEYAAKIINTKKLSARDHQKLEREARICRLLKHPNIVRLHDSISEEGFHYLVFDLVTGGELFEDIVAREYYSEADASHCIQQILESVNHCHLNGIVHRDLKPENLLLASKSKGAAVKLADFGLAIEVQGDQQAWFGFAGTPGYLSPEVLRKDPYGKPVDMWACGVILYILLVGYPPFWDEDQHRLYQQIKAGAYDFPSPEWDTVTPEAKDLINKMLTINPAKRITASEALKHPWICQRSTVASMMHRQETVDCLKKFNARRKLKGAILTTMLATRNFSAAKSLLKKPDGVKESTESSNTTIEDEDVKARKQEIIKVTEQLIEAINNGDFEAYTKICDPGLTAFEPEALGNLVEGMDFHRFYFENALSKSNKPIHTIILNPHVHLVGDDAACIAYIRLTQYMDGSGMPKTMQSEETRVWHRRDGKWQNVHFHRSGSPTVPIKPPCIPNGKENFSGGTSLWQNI
Chain of Serine/threonine-protein kinase 10 (O94804 whole entry): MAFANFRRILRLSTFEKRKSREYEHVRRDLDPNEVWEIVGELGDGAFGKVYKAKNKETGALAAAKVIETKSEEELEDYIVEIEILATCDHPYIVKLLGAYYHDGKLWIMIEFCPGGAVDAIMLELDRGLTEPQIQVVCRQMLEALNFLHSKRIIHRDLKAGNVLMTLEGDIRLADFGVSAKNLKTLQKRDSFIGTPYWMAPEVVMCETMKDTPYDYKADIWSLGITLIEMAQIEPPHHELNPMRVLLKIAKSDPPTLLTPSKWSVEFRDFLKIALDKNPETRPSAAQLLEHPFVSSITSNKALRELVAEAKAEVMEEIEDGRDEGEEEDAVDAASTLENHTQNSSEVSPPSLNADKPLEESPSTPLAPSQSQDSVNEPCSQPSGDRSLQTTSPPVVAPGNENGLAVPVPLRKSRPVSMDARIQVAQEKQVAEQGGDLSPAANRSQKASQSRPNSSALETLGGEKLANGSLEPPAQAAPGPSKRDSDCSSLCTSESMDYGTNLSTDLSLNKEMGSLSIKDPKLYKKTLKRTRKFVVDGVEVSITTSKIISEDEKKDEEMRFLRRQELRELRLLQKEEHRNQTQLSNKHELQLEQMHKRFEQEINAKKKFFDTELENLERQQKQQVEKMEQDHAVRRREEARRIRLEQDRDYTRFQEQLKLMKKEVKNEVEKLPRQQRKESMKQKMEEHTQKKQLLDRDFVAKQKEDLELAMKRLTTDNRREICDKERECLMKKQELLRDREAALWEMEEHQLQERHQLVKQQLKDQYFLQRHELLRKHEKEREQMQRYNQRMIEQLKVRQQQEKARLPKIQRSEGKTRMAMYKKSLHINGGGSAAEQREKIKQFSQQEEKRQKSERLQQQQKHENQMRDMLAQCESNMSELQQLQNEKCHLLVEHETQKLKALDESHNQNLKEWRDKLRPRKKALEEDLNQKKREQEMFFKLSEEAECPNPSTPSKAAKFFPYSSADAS
Chain of DnaJ homolog subfamily A member 1 (P31689 whole entry): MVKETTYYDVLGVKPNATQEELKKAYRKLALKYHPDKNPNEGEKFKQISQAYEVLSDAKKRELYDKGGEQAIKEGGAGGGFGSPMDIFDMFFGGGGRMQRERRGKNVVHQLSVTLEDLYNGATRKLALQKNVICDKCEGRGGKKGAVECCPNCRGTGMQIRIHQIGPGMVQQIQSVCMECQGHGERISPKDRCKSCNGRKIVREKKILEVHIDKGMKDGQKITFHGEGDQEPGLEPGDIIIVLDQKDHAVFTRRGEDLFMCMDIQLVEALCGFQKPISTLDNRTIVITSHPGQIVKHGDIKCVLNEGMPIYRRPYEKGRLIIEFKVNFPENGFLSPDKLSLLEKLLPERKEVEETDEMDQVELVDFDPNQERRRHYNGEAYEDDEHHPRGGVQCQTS

For `COc1cc2ncnc(Nc3ccc(F)c(Cl)c3)c2cc1NC(=O)/C=C/CN1CCCCC1` [DACOMITINIB ANHYDROUS], the Kd in assay [1], in assay [2], in assay [3], in assay [4], in [5] and in assay [6] was > 30 µM (inactive) in each case. Moreover, the Kd in assay [7] and in assay [8] was > 30 µM (inactive) each time.

With `O=C(Nc1ccc(OC(F)(F)F)cc1)c1sccc1NCc1ccnc2ccccc12` [OSI-930], the Kd in assay [1], in assay [2], in assay [3], in assay [4], in assay [9] and in assay [5] was > 30 µM (inactive) throughout. Moreover, the Kd in assay [6], in assay [7] and in assay [8] was > 30 µM (inactive) each time.

For `COc1cc2c(N3CCN(C(=O)Nc4ccc(OC(C)C)cc4)CC3)ncnc2cc1OCCCN1CCCCC1` [TANDUTINIB], the Kd in assay [3] and in [8] was > 30 µM (inactive) in each case.

In the case of `COc1cc2c(Oc3ccc4[nH]c(C)cc4c3F)ncnc2cc1OCCCN1CCCC1` [CEDIRANIB], the Kd in assay [3] and in assay [9] was > 30 µM (inactive) throughout.

As to `Cn1cnc2c(F)c(Nc3ccc(Br)cc3Cl)c(C(=O)NOCCO)cc21` [SELUMETINIB], the Kd in [3] was > 30 µM (inactive); in assay [9], 0.365 µM; in [8], > 30 µM (inactive).

As to `Cc1c(Cn2c(C)nc3c(C(=O)O)cc(N4CCOCC4)cc32)cccc1C(F)(F)F` [GSK-2636771], the Kd in [1], in [2], in assay [3], in [4], in assay [9] and in assay [5] was > 30 µM (inactive) throughout. Besides, the Kd in assay [6], in assay [7] and in assay [8] was > 30 µM (inactive) throughout.

As for `CN(C)C/C=C/C(=O)Nc1cc2c(Nc3ccc(F)c(Cl)c3)ncnc2cc1O[C@H]1CCOC1` [AFATINIB], the Kd in assay [3] and in [8] was > 30 µM (inactive) throughout.

Turning to `FC(F)(F)c1ccc(CNc2ccc(Cc3c[nH]c4ncc(Cl)cc34)cn2)cn1` [PEXIDARTINIB], the Kd in assay [1], in assay [2], in assay [3], in [4], in assay [9] and in assay [5] was > 30 µM (inactive) each time. The Kd in assay [6] and in assay [7] was > 30 µM (inactive) each time.

`CC1(C)CNc2cc(NC(=O)c3cccnc3NCc3ccncc3)ccc21` [MOTESANIB]: the Kd in assay [3], in [9] and in assay [8] was > 30 µM (inactive) throughout.

On to `C[C@@]1(C(=O)Nc2ccc(F)nc2)CCCN1c1nc(Nc2cc(C3CC3)n[nH]2)c2cccn2n1` [BMS-754807], for which the Kd in assay [3], in [9] and in assay [8] was > 30 µM (inactive) in each case.

Regarding `Cc1c(NC(=O)OC[C@@H]2COCCN2)cn2ncnc(Nc3ccc4c(cnn4Cc4cccc(F)c4)c3)c12` [AC-480], the Kd in [1], in assay [2], in assay [3], in [4], in assay [5] and in [6] was > 30 µM (inactive) in each case. For the same compound, the Kd in [7] and in assay [8] was > 30 µM (inactive) throughout.

`C[C@]1(O)C[C@@H](c2nc(-c3ccc4ccc(-c5ccccc5)nc4c3)c3c(N)nccn32)C1` [LINSITINIB]: the Kd in assay [3], in assay [4], in assay [9], in [5], in assay [6] and in [7] was > 30 µM (inactive) each time. Besides, the Kd in [8] was > 30 µM (inactive).
